Data: ChEMBL document CHEMBL4340507, “Identification of an indol-based multi-target kinase inhibitor through phenotype screening and target fishing using inverse virtual screening approach” (Eur J Med Chem, 2019)
Activity calls are given as the source filed them. The rule behind the calls is not given here.

Assays:
[1] = test system: IEC-6; assay: Cytotoxicity against rat IEC-6 cells assessed as reduction in cell viability measured after 24 to 72 hrs by MTT assay; format: cell-based; settings: Rattus norvegicus, IEC-6
[2] = test system: IEC-6; assay: Cell cycle arrest in rat IEC-6 cells assessed as accumulation at G0/G1-phase at 0.1 to 0.6 uM after 24 hrs by propidium iodide staining-based FACS analysis; format: ADME; settings: iec-6, 24 h
[3] = biological target: Fibroblast growth factor receptor 3 (Homo sapiens, UniProt P22607); assay: Inhibition of recombinant human wild-type N-terminal GST-His6-fused FGFR3 C-terminal domain (R397 to T806 residues) expressed in Sf9 insect cells using TRK-C derived peptide as substrate measured after 60 mins in presence of [gamma-33P]-ATP by scintillation counting method
[4] = biological target: Proto-oncogene tyrosine-protein kinase Src (Homo sapiens, UniProt P12931); assay: Inhibition of recombinant human full-length N-terminal GST-His6-fused SRC (M1 to L536 residues) expressed in Sf9 insect cells using Poly(Glu:Tyr)4:1 as substrate measured after 60 mins in presence of [gamma-33P]-ATP by scintillation counting method
[5] = biological target: Epidermal growth factor receptor (Homo sapiens, UniProt P00533); assay: Inhibition of recombinant human wild-type N-terminal GST-His6-fused EGFR C-terminal domain (H672 to A1210) expressed in Sf9 insect cells using Poly(Glu:Tyr)4:1 as substrate measured after 60 mins in presence of [gamma-33P]-ATP by scintillation counting method
[6] = biological target: Fibroblast growth factor receptor 4 (Homo sapiens, UniProt P22455); assay: Inhibition of recombinant human N-terminal GST-His6-fused FGFR4 (R391 to T802 residues) expressed in baculovirus infected Sf9 cells using Poly(Glu:Tyr)4:1 as substrate measured after 60 mins in presence of [gamma-33P]-ATP by scintillation counting method
[7] = biological target: Fibroblast growth factor receptor 1 (Homo sapiens, UniProt P11362); assay: Inhibition of recombinant human wild-type N-terminal GST-His6-fused FGFR1 C-terminal domain (G400 to R820 residues) expressed in Sf9 insect cells using Poly(Glu:Tyr)4:1 as substrate measured after 60 mins in presence of [gamma-33P]-ATP by scintillation counting method
[8] = biological target: Mitogen-activated protein kinase kinase kinase 10 (Homo sapiens, UniProt Q02779); assay: Inhibition of recombinant human MAP3K10 measured after 60 mins in presence of [gamma-33P]-ATP by scintillation counting method
[9] = biological target: Receptor tyrosine-protein kinase erbB-2 (Homo sapiens, UniProt P04626); assay: Inhibition of recombinant human wild-type N-terminal GST-His6-fused ERBB2 C-terminal domain (Q679 to V1255 residues) expressed in Sf9 insect cells using Poly(Glu:Tyr)4:1 as substrate measured after 60 mins in presence of [gamma-33P]-ATP by scintillation counting method
[10] = biological target: Rho-associated protein kinase 1 (Homo sapiens, UniProt Q13464); assay: Inhibition of recombinant human ROCK1 measured after 60 mins in presence of [gamma-33P]-ATP by scintillation counting method
[11] = biological target: Mitogen-activated protein kinase 1 (Homo sapiens, UniProt P28482); assay: Inhibition of recombinant human full-length untagged ERK2 (M1 to S360 residues) expressed in Escherichia coli using recombinant ELK1 as substrate measured after 60 mins in presence of [gamma-33P]-ATP by scintillation counting method
[12] = biological target: Mitogen-activated protein kinase kinase kinase 1 (Homo sapiens, UniProt Q13233); assay: Inhibition of recombinant human N-terminal 4xFLAG-tagged/C-terminal His8 fused MAP3K1 C-terminal domain (M1193 to W1512 residues) expressed in Sf9 insect cells using Bio-RS-Peptide as substrate measured after 60 mins in presence of [gamma-33P]-ATP by scintillation counting method
[13] = biological target: Serine/threonine-protein kinase Chk2 (Homo sapiens, UniProt O96017); assay: Inhibition of recombinant human CHK2 measured after 60 mins in presence of [gamma-33P]-ATP by scintillation counting method
[14] = biological target: Platelet-derived growth factor receptor beta (Homo sapiens, UniProt P09619); assay: Inhibition of recombinant human N-terminal GST-His6-fused PDGFR-beta C-terminal domain (R561 to L1106 residues) expressed in Sf9 insect cells using Poly(Ala,Glu,Lys,Tyr)6:2:5:1 as substrate measured after 60 mins in presence of [gamma-33P]-ATP by scintillation counting method
[15] = biological target: Mitogen-activated protein kinase 7 (Homo sapiens, UniProt Q13164); assay: Inhibition of recombinant human N-terminal FLAG-tagged/C-terminal His8 fused ERK5 internal fragment domain (L5 to Q397 residues) expressed in Sf9 insect ells using RBER-CHKtide as substrate measured after 60 mins in presence of [gamma-33P]-ATP by scintillation counting method
[16] = biological target: Casein kinase II subunit alpha' (Homo sapiens, UniProt P19784); assay: Inhibition of recombinant human full-length N-terminal GST-His6-fused CK2-alpha2 (M1 to R350 residues) expressed in Sf9 insect cells using casein as substrate measured after 60 mins in presence of [gamma-33P]-ATP by scintillation counting method
[17] = biological target: Dual specificity mitogen-activated protein kinase kinase 1 (Homo sapiens, UniProt Q02750); assay: Inhibition of recombinant human wild-type full-length MEK1 (M1 to V393 residues) expressed in Sf9 insect cells using ERK2-K54R as substrate measured after 60 mins in presence of [gamma-33P]-ATP by scintillation counting method
[18] = test system: IEC-6; assay: Induction of apoptosis in rat IEC-6 cells assessed as increase in hypodiploid nuclei at 0.1 to 0.6 uM measured after 24 hrs by propidium iodide staining-based FACS analysis; format: cell-based; settings: iec-6, 24 h
[19] = test system: IEC-6; assay: Cell cycle arrest in rat IEC-6 cells assessed as increase in accumulation at S phase at 0.1 to 0.6 uM after 24 hrs by propidium iodide staining based FACS analysis; format: ADME; settings: iec-6, 24 h
[20] = test system: IEC-6; assay: Cell cycle arrest in rat IEC-6 cells assessed as decrease in accumulation at G2-phase at 0.1 to 0.6 uM after 24 hrs by propidium iodide staining-based FACS analysis; format: ADME; settings: iec-6, 24 h
[21] = test system: HeLa; assay: Induction of apoptosis in human HeLa cells assessed as increase in caspase 3 level at 0.1 to 0.6 uM after 24 hrs by FACS analysis; format: functional, cell-based
[22] = test system: IEC-6; assay: Induction of apoptosis in rat IEC-6 cells assessed as increase in caspase 3 level at 0.1 to 0.6 uM after 24 hrs by FACS analysis; format: cell-based; settings: iec-6, 24 h
[23] = test system: HeLa; assay: Down regulation of ERK expression in human HeLa cells at 0.1 to 0.6 uM after 24 hrs by FACS analysis; format: functional, cell-based
[24] = biological target: Vascular endothelial growth factor receptor 3 (Homo sapiens, UniProt P35916); assay: Inhibition of recombinant human N-terminal GST-His6 fused VEGFR3 C-terminal domain (N799 to R1298 residues) expressed in baculovirus infected Sf9 insect cells using Poly(Glu:Tyr)4:1 as substrate measured after 60 mins in presence of [gamma-33P]-ATP by scintillation counting method

In the case of CN(CCc1ccc(-c2ccccc2)cc1)Cc1cn(C)c2ccc(C(=O)Nc3ccc(F)cc3)cc12, the IC50 [1] is reported as 6.43 µM, the Activity [2] is reported as “Toxic” and the IC50 [3] is reported as 6.3 µM. It also gave an IC50 [4] of 8.8 µM, an IC50 [5] of 10 µM and an IC50 [6] of 11 µM. For the same compound, the IC50 [7] was 13 µM, the IC50 [8] was 18 µM and the IC50 [9] was 24 µM. The IC50 [10] was 35 µM, the IC50 [11] was 66 µM and the IC50 [12] was 66 µM. The IC50 [13] was 79 µM, the IC50 [14] was 81 µM and the IC50 [15] was 90 µM. For the same compound, the IC50 [16] was 99 µM, the IC50 [17] was > 100 µM and the Activity [18] was “Toxic”. The Activity [19] was “Toxic”, the Activity [20] was “Toxic” and the Activity [21] was “Active”. The Activity [22] was “Toxic”, the Activity [23] was “Active” and the IC50 [24] was > 100 µM.
